Measurements: article PMC11859928, “Design, Synthesis, and Antiproliferative Activity of Novel Indole/1,2,4-Triazole Hybrids as Tubulin Polymerization Inhibitors” (Pharmaceuticals, 2025)

How the values were obtained:
Experiment in all cases: NCI one-dose assay
MALME-3M = assay type: cell-based; conditions: Homo sapiens, Melanoma, read-out: Cell growth inhibition %
Method: (§1) The National Cancer Institute (NCI), Bethesda, USA, selected the final compounds 6a–j and 7a–j for in vitro anticancer screening. An initial in vitro single-dose anticancer experiment was performed with the entire NCI 60 cell lines derived from nine tumor subpanel cancer cell lines. The results for each compound were illustrated as a mean graph showing the percentage growth of treated cells compared to untreated control cells (see Supplementary Materials).
(§2) The NCI anticancer screening process has been thoroughly detailed. The Drug Evaluation Branch of the National Cancer Institute in Bethesda, […], USA, established the procedure and conducted the anticancer assay on 60 human tumor cell lines from nine neoplastic cancers.

HL-60(TB) = assay type: cell-based; conditions: Homo sapiens, Leukemia, read-out: Cell growth inhibition %
Method: as §1, §2

COLO 205 = assay type: cell-based; conditions: Homo sapiens, COLO 205, Colon cancer, read-out: Cell growth inhibition %
Method: as §1, §2

TK-10 = assay type: cell-based; conditions: Homo sapiens, TK-10, Renal cancer, read-out: Cell growth inhibition %
Method: as §1, §2

SW-620 = assay type: cell-based; conditions: Homo sapiens, SW-620, Colon cancer, read-out: Cell growth inhibition %
Method: as §1, §2

SNB-75 = assay type: cell-based; conditions: Homo sapiens, SNB-75, CNS cancer, read-out: Cell growth inhibition %
Method: as §1, §2

KM12 = assay type: cell-based; conditions: Homo sapiens, KM12, Colon cancer, read-out: Cell growth inhibition %
Method: as §1, §2

SK-MEL-28 = assay type: cell-based; conditions: Homo sapiens, SK-MEL-28, Melanoma, read-out: Cell growth inhibition %
Method: as §1, §2

NCI-H322M = assay type: cell-based; conditions: Homo sapiens, Non-small cell lung cancer, read-out: Cell growth inhibition %
Method: as §1, §2

NCI-H23 = assay type: cell-based; conditions: Homo sapiens, NCI-H23, Non-small cell lung cancer, read-out: Cell growth inhibition %
Method: as §1, §2

OVCAR-5 = assay type: cell-based; conditions: Homo sapiens, OVCAR-5, Ovarian cancer, read-out: Cell growth inhibition %
Method: as §1, §2

SK-MEL-2 = assay type: cell-based; conditions: Homo sapiens, SK-MEL-2, Melanoma, read-out: Cell growth inhibition %
Method: as §1, §2

HCC-2998 = assay type: cell-based; conditions: Homo sapiens, HCC-2998, Colon cancer, read-out: Cell growth inhibition %
Method: as §1, §2

OVCAR-4 = assay type: cell-based; conditions: Homo sapiens, OVCAR-4, Ovarian cancer, read-out: Cell growth inhibition %
Method: as §1, §2

NCI-H226 = assay type: cell-based; conditions: Homo sapiens, NCI-H226, Non-small cell lung cancer, read-out: Cell growth inhibition %
Method: as §1, §2

T-47D = assay type: cell-based; conditions: Homo sapiens, T47D, Breast cancer, read-out: Cell growth inhibition %
Method: as §1, §2

HOP-62 = assay type: cell-based; conditions: Homo sapiens, HOP-62, Non-small cell lung cancer, read-out: Cell growth inhibition %
Method: as §1, §2

OVCAR-3 = assay type: cell-based; conditions: Homo sapiens, OVCAR-3, Ovarian cancer, read-out: Cell growth inhibition %
Method: as §1, §2

ACHN = assay type: cell-based; conditions: Homo sapiens, Renal cancer, read-out: Cell growth inhibition %
Method: as §1, §2

NCI-H522 = assay type: cell-based; conditions: Homo sapiens, NCI-H522, Non-small cell lung cancer, read-out: Cell growth inhibition %
Method: as §1, §2

UACC-257 = assay type: cell-based; conditions: Homo sapiens, UACC-257, Melanoma, read-out: Cell growth inhibition %
Method: as §1, §2

CAKI-1 = assay type: cell-based; conditions: Homo sapiens, CAKI-1, Renal cancer, read-out: Cell growth inhibition %
Method: as §1, §2

CCRF-CEM = assay type: cell-based; conditions: Homo sapiens, Leukemia, read-out: Cell growth inhibition %
Method: as §1, §2

MCF7 = assay type: cell-based; conditions: Homo sapiens, MCF7, Breast cancer, read-out: Cell growth inhibition %
Method: as §1, §2

SN12C = assay type: cell-based; conditions: Homo sapiens, Renal cancer, read-out: Cell growth inhibition %
Method: as §1, §2

RPMI-8226 = assay type: cell-based; conditions: Homo sapiens, RPMI-8226, Leukemia, read-out: Cell growth inhibition %
Method: as §1, §2

U251 = assay type: cell-based; conditions: Homo sapiens, U-251, U251, CNS cancer, read-out: Cell growth inhibition %
Method: as §1, §2

SNB-19 = assay type: cell-based; conditions: Homo sapiens, SNB-19, CNS cancer, read-out: Cell growth inhibition %
Method: as §1, §2

K-562 = assay type: cell-based; conditions: Homo sapiens, K562, K-562, Leukemia, read-out: Cell growth inhibition %
Method: as §1, §2

DU-145 = assay type: cell-based; conditions: Homo sapiens, DU-145, Prostate cancer, read-out: Cell growth inhibition %
Method: as §1, §2

HCT-116 = assay type: cell-based; conditions: Homo sapiens, HCT-116, Colon cancer, read-out: Cell growth inhibition %
Method: as §1, §2

PC-3 = assay type: cell-based; conditions: Homo sapiens, PC-3, Prostate cancer, read-out: Cell growth inhibition %
Method: as §1, §2

UO-31 = assay type: cell-based, human; conditions: Homo sapiens, UO-31, UO-31, Renal cancer, read-out: Cell growth inhibition %
Method: as §1, §2

786-0 = assay type: cell-based, human; conditions: Homo sapiens, 786-0, 786-0, Renal cancer, read-out: Cell growth inhibition %
Method: as §1, §2

HOP-92 = assay type: cell-based, human; conditions: Homo sapiens, HOP-92, HOP-92, Non-small cell lung cancer, read-out: Cell growth inhibition %
Method: as §1, §2

SMILES | inhibition at 10 µM (MALME-3M) | inhibition at 10 µM (HL-60(TB)) | inhibition at 10 µM (COLO 205) | inhibition at 10 µM (TK-10) | inhibition at 10 µM (SW-620) | inhibition at 10 µM (SNB-75) | inhibition at 10 µM (KM12) | inhibition at 10 µM (SK-MEL-28) | inhibition at 10 µM (NCI-H322M) | inhibition at 10 µM (NCI-H23) | inhibition at 10 µM (OVCAR-5) | inhibition at 10 µM (SK-MEL-2) | inhibition at 10 µM (HCC-2998) | inhibition at 10 µM (OVCAR-4) | inhibition at 10 µM (NCI-H226) | inhibition at 10 µM (T-47D) | inhibition at 10 µM (HOP-62) | inhibition at 10 µM (OVCAR-3) | inhibition at 10 µM (ACHN) | inhibition at 10 µM (NCI-H522) | further results
O=C(CSc1nnc(-c2c[nH]c3ccccc23)n1-c1ccccc1)c1ccccc1 [Compound 6f, 2-((5-(1H-indol-3-yl)-4-phenyl-4H-1,2,4-triazol-3-yl)thio)-1-phenylethanone] | 62.6% | 12.8% | 6.63% | 28% | 23.9% | -0.34% | 30.5% | 0.04% | 18.8% | 55.1% | 11.4% | 8.14% | 16.9% | 102% | 95.5% | 16.5% | 76.6% | 39.2% | 39.5% | 28.4% | inhibition at 10 µM (UACC-257): -3.2%; inhibition at 10 µM (CAKI-1): 46.8%; inhibition at 10 µM (CCRF-CEM): 8.65%; inhibition at 10 µM (MCF7): 63.8%; inhibition at 10 µM (SN12C): 55.3%; inhibition at 10 µM (RPMI-8226): 18.7%; inhibition at 10 µM (U251): 89.2%; inhibition at 10 µM (SNB-19): 80.8%; inhibition at 10 µM (K-562): 47.2%; inhibition at 10 µM (DU-145): 14.3%; inhibition at 10 µM (HCT-116): 62%; inhibition at 10 µM (PC-3): 34.2%; inhibition at 10 µM (UO-31): 44.5%; inhibition at 10 µM (786-0): 70.4%; inhibition at 10 µM (HOP-92): 53%
COc1ccc(C(=O)CSc2nnc(-c3c[nH]c4ccccc34)n2-c2ccccc2)cc1 [Compound 6g, 2-((5-(1H-Indol-3-yl)-4-phenyl-4H-1,2,4-triazol-3-yl)thio)-1-(4-methoxyphenyl) Ethenone] | 116% | 18.7% | 15.2% | 36.1% | 13.7% | 85% | 11.9% | 50.3% | 41.6% | 43.5% | 22.6% | 28% | 22.2% | 99.4% | 99.9% | 43.3% | 91.2% | 46.4% | 77.2% | 54.3% | inhibition at 10 µM (UACC-257): 40.5%; inhibition at 10 µM (CAKI-1): 38.5%; inhibition at 10 µM (CCRF-CEM): 17.5%; inhibition at 10 µM (MCF7): 54.4%; inhibition at 10 µM (SN12C): 55.6%; inhibition at 10 µM (RPMI-8226): 27.3%; inhibition at 10 µM (U251): 65.6%; inhibition at 10 µM (SNB-19): 70.2%; inhibition at 10 µM (K-562): 41.8%; inhibition at 10 µM (DU-145): 31.1%; inhibition at 10 µM (HCT-116): 47.5%; inhibition at 10 µM (PC-3): 49.7%; inhibition at 10 µM (UO-31): 67.4%; inhibition at 10 µM (786-0): 54.8%; inhibition at 10 µM (HOP-92): 92.1%
Cc1ccc(C(=O)CSc2nnc(-c3c[nH]c4ccccc34)n2-c2ccccc2)cc1 [Compound 6h, 2-((5-(1H-Indol-3-yl)-4-phenyl-4H-1,2,4-triazol-3-yl)thio)-1-(p-tolyl)ethenone] | 64.8% | 56.6% | 25% | 102% | 81% | 101% | 49% | 51% | 25.1% | 82.7% | 87% | 15.3% | 33.6% | 116% | 141% | 53.3% | 92.2% | 34.8% | 79.6% | 98.6% | inhibition at 10 µM (UACC-257): 22.7%; inhibition at 10 µM (CAKI-1): 87.6%; inhibition at 10 µM (CCRF-CEM): 39.2%; inhibition at 10 µM (MCF7): 87.5%; inhibition at 10 µM (SN12C): 75.1%; inhibition at 10 µM (RPMI-8226): 41.1%; inhibition at 10 µM (U251): 90.2%; inhibition at 10 µM (SNB-19): 80.3%; inhibition at 10 µM (K-562): 72.8%; inhibition at 10 µM (DU-145): 21.1%; inhibition at 10 µM (HCT-116): 92.3%; inhibition at 10 µM (PC-3): 57%; inhibition at 10 µM (UO-31): 69.7%; inhibition at 10 µM (786-0): 135%; inhibition at 10 µM (HOP-92): 108%
